The source of these data is patent US9624200B2, “Therapeutic piperazines” (DART NEUROSCIENCE (CAYMAN) LTD., priority 2006, dated 2017).

Bounds are passed on as bounds.

The test system of the assay is PDE4 from human U-937 cells. As to the kind of experiment: PDE4 Inhibition Assay. The assay is classed as biochemical. Conditions: 1 μM cAMP, [3H]-cAMP, read-out: Potency Class (Inhibitory Concentration) in the PDE4 assay. On the procedure:
PDE4 from human U-937 cells was used (see T. J. Torphy, et al., J. Pharmacol. Exp. Ther., 1992, 263, 1195-1205). Test compound at various concentration and/or vehicle was preincubated with 2 μg/ml enzyme in Tris-HCl buffer pH 7.5 for 15 minutes at 25° C. The reaction was initiated by addition of 1 1 μM cAMP and 0.01 1 μM [^3H]-cAMP for another 20 minute incubation period and terminated at 100° C. The resulting [^3H]-AMP was converted to [^3H]-adenosine by addition of snake venom nucleotidase and separated by AG1-X2 resin. An aliquot was removed and counted to determine the amount of [^3H]-adenosine formed. Results were converted to percent inhibition and IC so determined using XLfit from IDBS (ID Business Solutions Ltd., 2 Occam Court, Surrey Research Park, Guildford, Surrey, GU2 7QB UK).
Representative compounds of the present invention were tested and found to have significant PDE4 inhibition in this assay.
As to `CCc1nn(C2CCC2)c2cc(N3CCN(C(=O)Cc4ncccn4)[C@@H](Cc4ccccc4)C3)ccc12` [Compound 353, (S)-1-(2-benzyl-4-(1-cyclobutyl-3-ethyl-1H-indazol-6-yl)piperazin-1-yl)-2-(pyrimidin-2-yl)ethanone], the IC50 was above 1000 nM.
For the compound `COc1ccc(N2CCN(C(=O)C(C)(C)O)[C@@H](Cc3ccccc3)C2)cc1OC1CCCC1` [Compound 282, (S)-1-(2-benzyl-4-(3-(cyclopentyloxy)-4-methoxyphenyl)piperazin-1-yl)-2-hydroxy-2-methylpropan-1-one], the IC50 was in the range of 200 to 1000 nM.
With `COc1ccc(N2CCN(C(=O)C3CNC(=O)N3)[C@@H](Cc3ccccc3)C2)cc1OC1CCCC1` (stereo partly drawn) [Compound 281, 4-((S)-2-benzyl-4-(3-(cyclopentyloxy)-4-methoxyphenyl)piperazine-1-carbonyl)imidazolidin-2-one], the IC50 was below 200 nM.
As for `COc1ccc(N2CCN(C(=O)Cn3ccnn3)[C@@H](Cc3ccccc3)C2)cc1OC1CCCC1` [Compound 334, (S)-1-(2-benzyl-4-(3-(cyclopentyloxy)-4-methoxyphenyl)piperazin-1-yl)-2-(1H-1,2,3-triazol-1-yl)ethanone], the IC50 was above 1000 nM.
`COc1ccc(N2CCN(C(=O)Cc3c[nH]cn3)[C@@H](Cc3ccccc3)C2)cc1OC(F)F` [Compound 347, (S)-1-(2-benzyl-4-(3-(difluoromethoxy)-4-methoxyphenyl)piperazin-1-yl)-2-(1H-imidazol-4-yl)ethanone]: the IC50 is above 1000 nM.
For `COc1ccc(N2CCN(C(=O)[C@H]3C[C@@H](O)CN3)[C@@H](Cc3ccccc3)C2)cc1OC1CCCC1` [Compound 279, ((S)-2-benzyl-4-(3-(cyclopentyloxy)-4-methoxyphenyl)piperazin-1-yl)((2R,4R)-4-hydroxypyrrolidin-2-yl)methanone], the IC50 was above 1000 nM.
Take `COc1ccc(N2CCN(C(=O)Cc3ccco3)[C@@H](Cc3ccccc3)C2)cc1OC1CCC1` [Compound 314, (S)-1-(2-benzyl-4-(3-cyclobutoxy-4-methoxyphenyl)piperazin-1-yl)-2-(furan-2-yl)ethanone]: the IC50 lay within 200 to 1000 nM.
The value for `COCC(=O)N1CCN(c2ccc(OC)c(OC3CCCC3)c2)C[C@@H]1Cc1ccccc1` [Compound 245, (S)-1-(2-benzyl-4-(3-(cyclopentyloxy)-4-methoxyphenyl)piperazin-1-yl)-2-methoxyethanone] was 200 to 1000 nM; that for `COc1ccc(N2CCN(C(=O)Cc3ncc[nH]3)[C@@H](Cc3ccccc3)C2)cc1OC1CCCC1` [Compound 301, (S)-1-(2-benzyl-4-(3-(cyclopentyloxy)-4-methoxyphenyl)piperazin-1-yl)-2-(1H-imidazol-2-yl)ethanone] was below 200 nM.
On to `COc1ccc(N2CCN(C(C)=O)[C@@H](CN3CCCC3)C2)cc1OC1CCCC1` [Compound 249, (S)-1-(4-(3-(cyclopentyloxy)-4-methoxyphenyl)-2-(pyrrolidin-1-ylmethyl)piperazin-1-yl)ethanone], for which the IC50 was above 1000 nM.
As to `COc1ccc(N2CCN(C(=O)Cc3n[nH]c(C)n3)[C@@H](CN3CCOCC3)C2)cc1OC1CCCC1` [Compound 256, (S)-1-(4-(3-(cyclopentyloxy)-4-methoxyphenyl)-2-(morpholinomethyl)piperazin-1-yl)-2-(5-methyl-1H-1,2,4-triazol-3-yl)ethanone], the IC50 was below 200 nM.
With `COc1ccc(N2CCN(CCC(N)=O)[C@@H](Cc3ccccc3)C2)cc1OC1CCCC1` [Compound 269, (S)-3-(2-benzyl-4-(3-(cyclopentyloxy)-4-methoxyphenyl)piperazin-1-yl)propanamide], the IC50 is below 200 nM.
As to `COc1ccc(N2CCN(C(=O)C(C)C)[C@@H](Cc3ccccc3)C2)cc1OC1CCCC1` [Compound 243, (S)-1-(2-benzyl-4-(3-(cyclopentyloxy)-4-methoxyphenyl)piperazin-1-yl)-2-methylpropan-1-one], the IC50 is above 1000 nM.
